# Source: US20260209288A1, “PEPTIDES FOR REGULATING GLUCOSE” (Cooke Aquaculture Inc., priority 2019, published 2026)
# Legend:
# [1] = test system: L6 skeletal muscle cells; experiment: Glucose uptake experiments in L6 skeletal muscle cells (2-deoxy-[3H]glucose); format: cell-based
# Protocol: Glucose uptake experiments were conducted as described by Roblet 2013. L6 skeletal muscle cells were grown in an a-minimum essential medium (a-MEM) containing 2% (v/v) fetal bovine serum (GBS) in an atmosphere of 5% CO2 at 37° C. [Tremblay 2001]. Cells were plated at 600,000 cells/plate in 24-well plates to obtain about 25,000 cells/mL. The cells were incubated 7 days, to reach their complete differentiation to myotubes (7 days post-plating). L6 myotubes were deprived of GBS for 3 h, with a a-MEM containing 0% of GBS. Then, the cells were incubated for 75 minutes, with 10 μl of EDUF fractions at a concentration of 1 μg/mL and 1 ng/ml. Finally, insulin was added (10 μl at 1.10-5M) for 45 min. Experiments were repeated 9 times, and each repetition was run in triplicate. After experimental treatments, cells were rinsed once with 37° C. HEPES-buffered solution (20 mM HEPES, pH 7.4, 140 mM NaCl, 5 mM KCl, 2.5 mM MgSO4, and 1 mM CaCl2)) and were subsequently incubated in HEPES-buffered solution containing 10 µM 2-deoxyglucose and 0.3 μCi/mL 2-deoxy-[3H] glucose for 8 minutes. Then, the cells were rinsed three times with 0.9% NaCl solution at 4° C. and then frozen. The next day, the cells were disrupted by adding 500 μl of a 50 mM NaOH solution. The radioactivity was determined by scintillation.
# [2] = test system: FAO rat hepatocytes; experiment: Hepatic glucose production experiments in FAO cells; format: cell-based
# Protocol: Hepatic glucose production experiments were conducted as described by Chevrier et al, (2015). Briefly, FAO rat hepatocytes were grown and maintained in monolayer culture in Roswell Park Memorial Institute medium (RPMI) containing 10% FBS in an atmosphere of 5% CO2 at 37° C. Cells were plated at 4.10^6 cells/plate. […] […] Glucose production was measured in the medium by using the Amplex Red Glucose/Glucose Oxidase Assay kit (Invitrogen). Results shown are the mean response of at least 6 independent experiments realized in triplicate.
Substance,"glucose uptake, dose-response effect ([1]; IPVE at 1 ng/ml)","glucose uptake, dose-response effect ([1]; IPVE at 10 ng/ml)","Bioactivity ([1]; Table 1, identified peptides, glucose uptake)",nature of the glucose uptake response ([1]; concentrations from 1 μg/mL to 10 μg/mL as printed),"glucose uptake, dose-response effect ([1]; highest concentrations tested (>10 ng/ml))","enhancement of the glucose uptake ([1]; in the presence of insulin, compared to the insulin control (P=0.016)) [%]","glucose uptake, dose-response effect ([1]; lowest concentrations tested (<100 μg/mL))","Bioactivity ([2]; Table 1, identified peptides, hepatic glucose production)",decrease in HGP (hepatic glucose production) ([2]; basal condition) [%],"decrease of the HGP (hepatic glucose production) ([2]; insulin condition: peptide incubated with insulin at 0.1 nm, compared to insulin at 0.1 nm) [%]"
"IPVE: synthetic peptide of amino acid sequence IPVE, identified from salmon protein hydrolysate; increases glucose uptake",increase the bioactivity,increase the bioactivity,Increases glucose uptake,dose-dependent,no effect on the glucose uptake,17,no effect on the glucose uptake,,,
VAPEEHPTL,,,,,,,,Decreases hepatic glucose production,20,18
